What all share (type): physicochemical
The nature of series [1]: Dissolution rate in water of epoxy crosslinking agent. The settings on record: 25.0 g in 225 g water (25° C.), stirred 15 minutes, left to stand 1 hour. Here is the method: 1. Precisely weigh 25.0 g of the epoxy crosslinking agent composition in a beaker, and add thereto 225 g of water (25° C.).
2. Vigorously stir and mix the resultant at room temperature (23° C.±2° C.) for 15 minutes, and leave the resulting mixture to stand for 1 hour.
3. Measure the volume (mL) of an oily matter precipitated on the bottom of the beaker.
The dissolution rate in water (%) was measured for the purpose of checking the solubility of each epoxy crosslinking agent in water. The dissolution rate in water can be measured by the following procedures.
1. Precisely weigh 25.0 g of the subject crosslinking agent composition in a beaker.
2. Add 225 g of 25° C. water, and vigorously stir the resultant at room temperature for 15 minutes using a magnetic stirrer.
3. After leaving the beaker to stand at room temperature for 1 hour, measure the volume (mL) of an oily matter precipitated on the bottom.

Series [2] in a line: MIBK/water distribution ratio of epoxy crosslinking agent. The settings on record: 5.0 g water, 5.0 g MIBK, 0.5 g crosslinking agent, 23±2° C., average of three. Here is the method:
Method of measuring the MIBK/water distribution ratio: in a test tube, 5.0 g of water, 5.0 g of methyl isobutyl ketone (MIBK) and 0.5 g of the epoxy crosslinking agent are precisely weighed and mixed with stirring at 23° C.±2° C. for 3 minutes, and the resulting mixture is centrifuged at 1.0×103 G for 10 minutes and thereby separated into an aqueous layer and an MIBK layer, after which the MIBK layer is fractionated and weighed to calculate the MIBK/water distribution ratio using the following equation: MIBK/water distribution ratio (%)=(Weight of separated MIBK layer (g)−Weight of MIBK before separation (g))/Weight of added crosslinking agent (g)×100 • this measurement is performed three times, and an average value thereof is defined as the MIBK/water distribution ratio.
First, about 5.0 g of water, about 5.0 g of MIBK and about 0.5 g of the epoxy crosslinking agent are precisely weighed and added to a test tube. The weight of MIBK and that of the epoxy crosslinking agent are defined as M (g) and E (g), respectively.
This mixture is thoroughly mixed with stirring for 3 minutes at a temperature of 23° C.±2° C. and subsequently separated into an aqueous layer and an MIBK layer by 10-minute centrifugation at 1.0×10^3 G. Thereafter, the weight of the MIBK layer is measured and defined as ML (g). MIBK/water distribution ratio (%)=(ML (g)−M (g))/E (g)×100
The methyl isobutyl ketone (MIBK)/water distribution ratio (%) was measured for the purpose of checking the amount of the movement of each epoxy crosslinking agent into an MIBK layer in an environment similar to the environment in a latex liquid.
3. Fractionate the thus separated MIBK layer into a disposable cup using a Pasteur pipette and measure the weight of the MIBK layer.
4. Calculate the MIBK/water distribution ratio using the following equation: MIBK/water distribution ratio (%)=(Weight (g) of separated MIBK layer−Weight (g) of MIBK before separation))/(Weight (g) of added crosslinking agent)×100
5. Perform this measurement three times, and calculate the average value thereof as the MIBK/water distribution ratio.
It is noted here that a vortex mixer (VORTEX-GENIE 2 Mixer, standard model; manufactured by Scientific Industries, Inc.) was used for the stirring in the procedure 2.

Series [3] is described as follows: Pot life (working life) of dip molding composition. The following applies: XNBR NL120H(a). From the text:
The term “pot life” used herein represents a property of a dip molding composition, and a method of determining the “pot life” will be described below in the section of Examples. Specifically, the “pot life” refers to a period from the preparation of a dip molding composition to the formation of a cured film, in which period the use of the dip molding composition allows the resulting cured film to satisfy specific criteria.
In the present invention, the acceptable level of the pot life of the dip molding composition necessary for mass production is defined as a level at which a film produced using the dip molding composition that has been stored for at least 3 days satisfies a tensile strength of 20 MPa or higher and a fatigue durability of 240 minutes or longer, which are performances required as a glove.
The pot life is determined based on the time from the addition of an epoxy crosslinking agent in the preparation of a dip molding composition to adhesion of the dip molding composition to a glove forming mold. Moreover, the types of XNBRs and epoxy crosslinking agents used in dip molding compositions are shown in the respective Tables below.
The pot life of each dip molding composition was determined by the following procedures. The unit of the pot life is day. The dip molding compositions were prepared using the respective epoxy crosslinking agents and stored, and cured films were produced at one-day intervals. […] The number of days of storage until the last acceptable day was defined as the pot life. In this Experimental Example, experiments were conducted until day 7 as the longest duration of storage.

Setting [4] is: 0.5 parts by weight epoxy crosslinking agent, fatigue durability 240 minutes acceptable line, experiments until day 7.

This note sets out measurements from patent publication US12338351B2, “Dip molding emulsion, method of producing glove, and glove” (Midori Anzen Co., Ltd., priority 2018, dated 2025).

“sorbitol polyglycidyl ether [epoxy crosslinking agent I]”: in series [1] (listed as I), the “Dissolution rate in water” value was determined as 78%. Besides, the MIBK/water distribution ratio in series [2] (listed as I) is reported as 26%.
Turning to `C(OCC1CO1)C(COCC1CO1)OCC1CO1` (stereo not drawn) [epoxy crosslinking agent H, glycerol triglycidyl ether], in series [1], the “Dissolution rate in water” value worked out at 99%. In addition, the MIBK/water distribution ratio in series [2] turned out to be 28%. In addition, the “Pot life” value in series [3] (setting [4]) turned out to be 2 days; in series [3] (added amount of epoxy crosslinking agent increased to 1.0 part by weight), 3 days.
On to `CC(COCC1CO1)OCC1CO1` (stereo not drawn) [epoxy crosslinking agent M, propylene glycol diglycidyl ether], for which, in series [1], the “Dissolution rate in water” value stood at 75%. Besides, the MIBK/water distribution ratio in series [2] was 57%.
Regarding “polyglycerol polyglycidyl ether [epoxy crosslinking agent L]”, the MIBK/water distribution ratio in series [2] (listed as L) is recorded as −10%.
Regarding “diglycerol triglycidyl ether [epoxy crosslinking agent G]”, the “Dissolution rate in water” value in series [1] is on record as 88%. The MIBK/water distribution ratio in series [2] is on record as 36%. Besides, the “Pot life” value in series [3] (setting [4]) was 3 days.
“polyglycerol polyglycidyl ether [epoxy crosslinking agent K]”: the “Dissolution rate in water” value in series [1] is 100%. In series [2] (listed as K), the MIBK/water distribution ratio worked out at 6%.
As to “polyethylene glycol diglycidyl ether [epoxy crosslinking agent N]”, the “Dissolution rate in water” value in series [1] is given as 99%. Besides, in series [2], the MIBK/water distribution ratio came to 4%.
Consider “sorbitol polyglycidyl ether [epoxy crosslinking agent J]”, for which the “Dissolution rate in water” value in series [1] (listed as J) was determined as 94%. Further, the MIBK/water distribution ratio in series [2] (listed as J) is on record as 23%.
